Results reported in a melting point compilation (Tetko et al.; mined from patent text by program, amines drawn as free bases though some values may be those of a salt).

| SMILES | melting point [°C] |
| --- | --- |
| CN(C)C(=O)N1CC(Sc2ccc(Cl)cc2)C1 | 96 to 97 |
| O=C1N=C(N2CCCCC2)SC1=Cc1cccc(-c2ccc(O)c(C34CC5CC(CC(C5)C3)C4)c2)c1 | 311 to 312 |
| CC(C)(C)OC(=O)[C@H](CCSCc1cn(C(c2ccccc2)(c2ccccc2)c2ccccc2)cn1)NC(=O)OCc1ccccc1 | 183 to 185 |
| C=C1CC2(C)C(CCC2(C)O)C2CCC3=CC(=O)CCC3(C)C12 (stereo unspecified) | 155 to 157 |
| CN(CC(C)(C)[N+](=O)[O-])c1ccc(N(C)CC(C)(C)[N+](=O)[O-])cc1 | 119 to 121 |
| CN1CCCC(c2cccc3c2CC(=O)N3)C1 (stereo unspecified) | 160 |
| COc1ccc(-c2ccc(C(=O)Nc3ccc4cc(CN5CCCCCC5)cnc4c3C)cc2)cc1 | 165 to 167 |
| COCCN(C)CC1=Cc2cc(S(N)(=O)=O)sc2S(=O)(=O)N1C | 127 to 129 |
| COC(=O)CCC(=O)Nc1cccc(O)c1 | 144 to 146 |
| C[Si](C)(Cn1cncn1)c1ccc(-c2ccccc2)cc1 | 79 to 86 |
| CCCCc1c(C)c(NC(=O)CC(C)(C)C)c(C)c2c1OCC2c1ccc(C(C)C)cc1 (stereo unspecified) | 149 to 151 |
| CN(C)C=NS(=O)(=O)c1c(C(F)(F)F)nc2ccc(Cl)nn12 | 204 to 205 |
| CCCCOc1ccc(CC(=O)N[C@@H](C(=O)OCc2ccccc2)[C@@H](C)O)cc1 | 80 to 83 |
| CC1(C)CC(OC(=O)c2cccc(C(=O)OC3CC(C)(C)N(OC4CCCCC4)C(C)(C)C3)c2)CC(C)(C)N1OC1CCCCC1 | 135 to 141 |
| COC1CC2(C)C(CCC3C4CC=C(C(C)=O)C4(C)CCC32)CC1O (stereo unspecified) | 183 to 187 |
| CC1(C)C(=O)NCCN1C(=O)C(Cc1ccccc1)N1C(=O)c2ccccc2C1=O (stereo unspecified) | 221 to 223 |
| O=CC(=Cc1ccc(OCc2ccc(Cl)cc2)cc1)C(C=O)=Cc1ccc(OCc2ccc(Cl)cc2)cc1 | 208 to 209 |
| CCCCCCNC(=O)OCCCNC(=O)OC1CCN(C(=O)Oc2ccc(Oc3ccccc3)cc2)CC1 | 90 to 92 |
| COC(=O)c1cccc2[nH]c3cc4c(c(OC)c3c12)CCCC4 | 194 to 196 |
| N#CCCNC(=O)c1n[nH]cc1NC(=O)c1ccc(Br)o1 | 220 to 222 |
| Cc1ccc2cccc(OCc3c(Cl)ccc(S(=O)(=O)N(C)Cc4ccccc4)c3Cl)c2n1 | 154 |

| SMILES | melting point [°C] |
| --- | --- |
| CNc1nc(-c2cccc(NC(=O)c3cccc(OCc4ccccc4)c3)c2)c2cc(OC)c(OC)cc2n1 | 110 to 112 |
| Cc1ccc(C(=O)NC(CCCCCl)C(=O)O)cc1 (stereo unspecified) | 177 to 181 |
| Cc1c(O)c(C=O)c2nc3c(O)ccc(C(=O)NCCN(C)C)c3nc2c1O | > 250 |
| COc1ccc(C(=O)c2ccc(OCc3nc(-c4cccc(OS(C)(=O)=O)c4)oc3C)cc2)c(OC(C)(C)C(=O)O)c1 | 182 to 183 |
| COc1cc2c(nc1OC)c(-c1cc3c(Cl)c(F)cnc3[nH]1)cn2CCN1CCOCC1 | 206 |
| CC1=Nc2ccccc2N(Cc2ccccc2)C(=O)C1C/C=C/c1ccccc1 (stereo unspecified) | 152 to 154 |
| CC(C)(C)OC(=O)N[C@@H](Cc1ccnc(C#N)c1)C(=O)OCc1ccccc1 | 74 to 76 |
| NC(=O)C1=CN(CCCC(=O)NCCc2ccccc2)C=CC1 | 55 to 60 |
| COc1ccc(NC(N)=S)nc1 | 131 to 135 |
| O=C(C=C1CCCN1)c1ccc(Cl)c(Cl)c1 | 208 to 209 |
| O=C(O)COc1cc2c(c(Cl)c1Cl)C(=O)C(Cl)(C1CCCCC1)C2 (stereo unspecified) | 142 to 145 |
| CC(=O)SCC(C(=O)NC(CC(=O)O)Cc1ccccc1)C(F)(F)F (stereo unspecified) | 171 to 172 |
| CCCc1c(OCC(O)COc2ccc3c(C)c(CC(=O)O)c(=O)oc3c2)ccc(C(C)=O)c1O (stereo unspecified) | 130 |
| CN(C)c1ccc(Cl)cc1[N+](=O)[O-] | 54 to 55 |
| CCOC(=O)CN1C(=O)C(=O)N(C)C1=O | 97 to 98.5 |
| CCOC(=O)C1=C(C)NC(C)=C(C(=O)OCCC#N)C1c1ccccc1/C=C/C(=O)OC(C)(C)C (stereo unspecified) | 168 to 169 |
| COc1cc(OC)c2c(C)c(CCN3CCC(O)(c4ccccc4)CC3)c(=O)oc2c1 | 178 to 179 |
| N#Cc1cc(F)c(-n2nc(C(F)(F)F)[nH]c2=O)cc1F | 51 |
| CCn1nc2c(N)nc3c(c2c1CCC1CCCCC1)CCCC3 | 177 to 179 |
| CN(C(=O)CCCOc1ccc2[nH]c(=O)oc(=O)c2c1)C1CCCCC1 | 222 to 224 |
| COC(=O)c1sccc1NC(=S)N1CCN(c2ncnc3cc(OC)c(OC)cc23)CC1 | 226 to 228 |

Results, then the compound that gave them:

| melting point [°C] | SMILES |
| --- | --- |
| 126 to 128 | CC(C)(O)COc1ccc(/C=C/C(=O)O)c(Oc2ncc(C(F)(F)F)cc2Cl)c1 |
| 110 to 111 | COc1ccc(C2(O)c3cc(NC(=O)CC(C)(C)C)c(C)c(C)c3OC2(C)C)cc1 (stereo unspecified) |
| 126 to 128 | CCCc1cc(C=CC(=O)c2ccc(O)cc2)c(OC)cc1O |
| 65.4 to 66.8 | COc1c(C)c2c(c(OS(=O)(=O)c3ccc(C)cc3)c1CC1=C(C)C(=O)CC1)C(=O)OC2 |
| 145 | O=C(c1cccnc1)c1cc(-c2cccnc2)c(N2CCOCC2)s1 |
| 137 to 140 | COCCCn1nnnc1-c1cc(-c2cccc(C)c2)c(O)cc1O |
| 221 to 224 | O=C(O)C1Cc2c(c(Cl)cc3c(-c4ccccc4)noc23)O1 (stereo unspecified) |
| 87 | O=c1[nH]nc(-c2c(Cl)ccc3cc(Cl)cnc23)o1 |
| 130 to 131 | Cc1cc(C)c(S(=O)(=O)NCCCCOc2ccc(-n3ccnc3)cc2)c(C)c1 |
| 64 to 68 | COC(OC)c1cc(=O)c2ccccc2o1 |
| 86 to 88 | CCCCNC(=O)[C@@H]1C[C@]2(NC(=O)N(CCCN3CCC(O)CC3)C2=O)c2cc(F)ccc2O1 |
| 169 to 171 | ON=CNc1nc(OCc2ccc(F)cc2)ncc1F |
| 191 to 193 | Cc1cnc2c(C#N)cnn2c1-c1cccc(C(F)(F)F)c1 |
| 151 to 153 | CN1C(=O)C2(COc3cc4c(cc32)OCCO4)c2c(Oc3ccc(F)cc3)cccc21 (stereo unspecified) |
| 167 to 170 | COc1ccc(-n2ccc(O)n2)cc1 |
| 205 to 207 | COc1ccc(-c2nc3cc(C(N)=O)ccc3[nH]2)c2ccc(C(F)(F)F)nc12 |
| 131 to 132 | Nc1ccc2sc3ccc(F)cc3c2c1 |
| 59 | CC(=O)CC(=O)c1ccc2c3c(cccc13)CC2 |
| 174 to 176 | COC(=O)c1cccc2c1c1c(O)c3c(cc1n2Cc1ccccc1)CCCC3 |
| 231 to 232 | COc1ccc(Oc2cccc3ncnc(NC(=O)Nc4ccccc4)c23)cc1 |
| 232 | COc1ccc(-n2c(CC(=O)O)c(C(=O)O)c3cc(Oc4cc(C(F)(F)F)cc(C(F)(F)F)c4)ccc32)cc1 |
| 119 to 124 | O=C(Nc1ccc(N2CCNCC2)cc1)c1ccccc1-c1ccc(C(F)(F)F)cc1 |
| 174 to 176 | CC1(C)CC(c2ccc3ccccc3n2)c2cc(C#N)ccc2O1 (stereo unspecified) |
| 84 to 86 | O=[N+]([O-])c1ccc(Oc2ccccc2)nc1 |
| 128 to 130 | COc1ccc(Cn2nnnc2C(O)c2ccccc2Cl)cc1 (racemic) |
| 55 to 57 | O=C(O)C(F)(F)c1cccc(OCc2ccccc2Cl)c1OCc1ccccc1Cl |
| 150 to 152 | O=C1CCN(c2ccccc2)C(=O)C1=C1SC=CS1 |

| melting point [°C] | SMILES |
| --- | --- |
| 192 to 193 | Cc1oc(-c2ccccc2)nc1COc1ccc(C=NO)cc1 |
| > 320 | O=C(CCN1CCCC1)Nc1ccc2c(=O)c3ccc(NC(=O)CCN4CCCC4)cc3[nH]c2c1 |
| 184 to 185 | COc1ccnc(CS(=O)c2nc3cc4c(cc3[nH]2)OC(F)(F)O4)c1 (stereo unspecified) |
| > 300 | O=c1[nH]cc2c(c1-c1ccc(O)cc1)Nc1ccccc1S2 |
| 146 to 150 | COC(=O)c1nc(NC(=O)c2ccccn2)ccc1Oc1nc(OC)cc(OC)n1 |
| 158 to 161 | Cc1nsc(NC(=O)C(C)c2ccc3oc(-c4cccc(Cl)c4Cl)nc3c2)c1Cl (stereo unspecified) |
| 138 | O=C(O)Cc1ccc(CCNS(=O)(=O)c2ccc(Cl)cc2)s1 |
| 294 | CCNC(=O)Nc1nc2cc(OCc3ccccc3)cc(Br)c2s1 |
| 112 to 114 | Fc1cccc(Cl)c1-c1nn(-c2ccccc2Cl)c(=S)o1 |
| 228 | COc1cc2c(cc1OC)C1=NCCc3cccc(c31)C2=O |
| 83 to 84 | COc1cc2c(N3CCN(C(=O)Nc4ccc(Oc5ccccc5)cc4)CC3)ncnc2c(OC)c1OC |
| 128 to 130 | CCOc1nn(-c2cc(C(F)(F)F)ccn2)cc1CCCOc1cccc(CC(=O)O)c1 |
| 222 | COc1ccc2oc3ccc([N+](=O)[O-])cc3c2c1C(=O)Nc1ccncc1 |
| 164 to 165 | COc1ccc([C@@H]2OC(=O)N[C@@H]2Cc2ccc(C(F)(F)F)cc2)cc1 (racemic) |
| 164 | N#CCOc1cc2c(cc1-c1ccc(F)cc1)NC(=O)CC(c1cccc(-n3ccnc3)c1)=N2 |
| 282 to 283 | Cc1ccc(-c2ccc3c(c2)C=C(C(=O)Nc2ccc(C4=NCCN4)cc2)CCO3)cc1 |
| 94 | O=C1CCC(c2ccc(-c3ccc([N+](=O)[O-])cc3F)cc2)O1 (stereo unspecified) |
| 178 to 185 | ON=C(c1cccc(F)c1)c1ccc(O)c(Cl)c1Cl |
| 245 to 248 | O=c1[nH]c2ccccc2c(=O)c2ccccc12 |
| > 300 | CC(=O)Nc1cccc(Nc2ncnc3[nH]cc(C(=O)c4ccccc4C)c23)c1 |
| 170 to 171 | Nc1cc(C(=O)c2cccc(C(=O)c3ccc(F)c(N)c3)c2)ccc1F |
| 120 to 124 | Cn1c(CC#N)ccc1C(=O)c1ccc(Cl)cc1 |
| > 180 | C=Cc1cc(OP(=O)(O)O)cc2nc(-c3ccc(OP(=O)(O)O)c(F)c3)oc12 |
| 124 to 126 | C[C@H](O)[C@H](CO)N(Cc1ccc(C#N)cc1)S(=O)(=O)c1ccc(Cl)cc1 |
| 141 to 142 | COc1ccc(C(=O)c2cc(C(C)(C)C)c(O)c(C(C)(C)C)c2)cc1 |
| 233 to 236 | O=c1c2c(Cc3ccccc3OC(F)(F)F)n[nH]c2c2cccnc2n1-c1cccc(OC(F)(F)F)c1 |
| 82 to 84 | COc1ccc(/C=C(\C#N)c2ccc(N)cc2)cc1OC1CCCC1 |
